In patent US9823232B2, “Ligand for detection of chromium (III) and a process for the preparation thereof” (COUNCIL OF SCIENTIFIC & INDUSTRIAL RESEARCH, priority 2013, dated 2017):
Entries after “also recorded” stand apart in the source; their conditions may differ.

Experiments:
[1] = Selectivity towards various metal ions by absorption and emission spectra
Method: To check the selectivity of Receptor L1 towards various metal ions like Li^+, Na^+, K^+, Cs^+, Mg^2+, Ca^2+, Ba^2+, Sr^2+, Zn^2+, Co^3+, Cu^2+, Ni^2+, Fe^2+, Pb^2+, Hg^2+ change in electronic as well as emission spectra were examined in 0.32 mM Triton X 100 in tris (5 mM, 25 mM NaCl) buffer medium at PH 7.2.
However only in presence of Cr^3+, a strong absorption band at 562 nm and intense emission band at 583 nm (for λext=530 nm) are observed. These changes are also associated with simultaneous visually detectable change in solution colour from colourless to pink red.
A solution of the perchlorate salts of the respective ion (Li^+, Na^+, K^+, Cs^+, Ca^2+, Mg^2+, Ba^2+, Sr^2+, Fe^2+, Ni^2+, Co^2+, Cu^2+, Mn^2+, Cd^2+, Pb^2+, Ba^2+, Zn^2+, Sr^2+, Hg^2+ and Cr^3+) and nitrate salts of lanthanides ions (Tb^3+, Ho^3+, Ce^3+, Sm^3+, Rb^+, Pr^3+, Eu^3+, Gd^3+, Nd^3+, Dy^3+, Tm^3+, Er^3+, Yb^3+) in pure aqueous medium were used for all studies. The effective final concentrations of all metal salts were maintained at 1.62×10^−4 M.
A stock solution of the receptor L1 (6.9×10^−4 M) was prepared in acetonitrile medium and 57 μL of this stock solution was added to 2.5 ml of 0.4 mM TX100 in Tris-HCL aqueous buffer medium having solution pH 7.2 to make the effective ligand concentration of 1.59×10^−5 M. The solution was used for all the photophysical studies. […]

[2] = Relative fluorescence quantum yield w.r.t. Rhodamine B; format: physicochemical; conditions: with Cr^3+
Method: (§1) A stock solution of the receptor L1 (6.9×10^−4 M) was prepared in acetonitrile medium and 57 μL of this stock solution was added to 2.5 ml of 0.4 mM TX100 in Tris-HCL aqueous buffer medium having solution pH 7.2 to make the effective ligand concentration of 1.59×10^−5 M. The solution was used for all the photophysical studies. Cr^3+ stock solution (4.75×10^−3 M) was prepared in pure aqueous medium and was used for all studies. Emission titrations were also performed as a function of [TX100](0.1 mM, 0.23 mM, 0.32 mM, 0.4 mM, 0.6 mM) in Tris-HCl buffer medium of pH 7.2 by monitoring the increase in emission intensity (using λExt=530 nm, λMon=583 nm and slit width 2/2 nm) on binding of L1 to Cr^3+ for optimizing the maximum enhancement of the emission intensity. The relative fluorescence quantum yields (t) were estimated using equation 1 for different concentration of TX100 (0.1 mM, 0.23 mM, 0.32 mM, 0.4 mM, 0.6 mM) in Tris-HCl buffer medium (having solution pH of 7.2) and by using the Rhodamine B (φf=0.3 in aqueous medium at RT) as a reference. φf=φf′(Isample/Istd)(Astd/Asample)(η^2sample/η^2std) Eq. 1 where, φf′ was the absolute quantum yield for the rhodamine B and was used as reference; Isample and Istd are the integrated emission intensities; Asample and Astd are the absorbances at the excitation wavelength, and ηsample and ηstd are the respective refractive indices.

[3] = Isothermal Titration Calorimetry (ITC) in acetonitrile at 25° C.; format: binding
Method: FIG. 10 depicts Isothermal Titration Calorimetry (ITC) titration profile for the binding of Cr^3+ to receptor L1 at 25° C. in acetonitrile; Top plot: raw data for the sequential 2 μl injection of Cr^3+ (1.2×10^−3 M) into solution of L1 (2.0×10^−4 M) and bottom plot of the heat evolved (kcal per mole) of Cr^3+ added.
5.0 mM Tris-HCl aq. buffer solution was used for maintaining solution pH, unless mentioned otherwise. ESI-MS measurements were performed using a Micromass QTof-Micro instrument. FT-IR spectra were recorded as KBr pellets using a Perkin Elmer Spectra GX 2000 spectrometer. ^1H and ^13C NMR spectra were recorded on Bruker 500 MHz FT NMR (model: Avance-DPX 500). Electronic spectra were recorded with a Varian Cary 500 Scan UV-Vis-NIR Spectrophotometer, Isothermal Titration Calorimetry studies were performed in Microcal iTC200, while emission spectra were recorded using either Edinburgh Instrument Xe-900 Spectrofluorometer or PTI. For all spectroscopic studies in aqueous buffer medium as well as for studies with plant/algal cells, L1 self-assembled inside the miceller structure of TX100 was used, unless mentioned otherwise.
(§2) To envisage the adverse role of high solvation enthalpy of Cr(III) in aqueous medium, similar Uv-vis and emission titrations were carried out in acetonitrile medium using ([Cr(III)]=(0-1.93×10^−4)M; and [L1]=(1.59×10^−5 M) in CH3CN) and the evaluated formation constant for Cr^3+.L1 in acetonitrile was (Ka^Abs=(1.1±0.03)·10^6 M^−1, Ka^Ems=(1.0±0.02)·10^6 M^−1 using λExt: 530 nm and λMon: 583 nm for emission titration). The binding affinity of L1 towards Cr^3+ was evaluated as Ka^ITC=(1.6±0.02)·10^6 M^−1 in acetonitrile medium at 25° C. using ITC experiments. […] Thermodynamic parameters were obtained from ITC studies (ΔG (−(8.48±0.02) kcal mol^−1), ΔH ((−20.8±0.4) kcal mol^−1) and ΔS (−41.4±0.05) cal mol^−1) (all symbols are used according to standard terminology).

[4] = Uv-vis and emission titrations in acetonitrile medium; format: binding
Method: as §2

[5] = Absorption (UV-Vis) spectral titration with B-H plot in aqueous Triton X 100 / Tris buffer pH 7.2; format: binding
Method: (§3) The association constant (Kabs) of 2.4×10^3 M^−1 for the L1-Cr^3+ formation is evaluated from the absorption titration and B-H plot data (FIG. 3). A good linear fit data supported the 1:1 binding stoichiometry. For emission titration, a significant increase in emission intensity at 583 nm is observed with an increase in concentration of Cr^3+ in aqueous medium. […] The 1:1 binding stoichiometry is further confirmed from Jobs plot and presence of signal for m/z at 616.87 (Calc 616.75) in FAB-MS analysis of a mixture of L1 (1.59×10^-5 M) and (9.5×10^−5 M) Cr(ClO4)3 for [L1+Cr^3+].
as §1, with “indices. Computational Methodology:” for “indices.”
(§4) Formation of Cr^3+.L1 was also confirmed from the result “Formation of Cr3+.L1 was also confirmed from the result of FAB MS study. Signal at m/z value of 616.87 (Calc 616.75) for Cr3+.L1”.

[6] = Emission (fluorescence) spectral titration with B-H plot in aqueous Triton X 100 / Tris buffer pH 7.2; format: binding
Method: as §3
as §1, with “indices. Computational Methodology:” for “indices.”
as §4
3.28×10^−3 M Cr(III) solution in water is prepared and then it is gradually added to a solution of the ligand L1, where effective ligand concentration is 1.59×10^−5 M in a Tris buffer with solution pH of 7.2 having 0.32 mM Triton X 100. Uv-vis and luminescence spectra are recorded in absence and presence of [Cr(III)]. In emission spectra a 200 fold increase in spectral intensity at 583 nm (λext=530 nm and slit 2/2) is observed, while a simultaneous change in solution colour is observed from colourless to pink red (please refer to FIGS. 4 and 6).

[7] = aqueous medium at RT; cited from earlier work
[8] = predominantly organic medium; cited from earlier work
[9] = [Triton X 100] 0.23 mM, aqueous medium
[10] = [Triton X 100] 0.32 mM, Tris buffer pH 7.2

C=CCN(CC=C)CCN1C(=O)c2ccccc2C12c1ccc(N(CC)CC)cc1Oc1cc(N(CC)CC)ccc12 [Ligand L1]
Selectivity for Cr(III) over other metal ions (absorption 562 nm, emission 583 nm, colour) ([1]; Triton X 100 in Tris buffer pH 7.2, alkali, alkaline earth and transition metal ions): selective/specific for Cr (III); also recorded: no such changes are observed | Interference of Cr(VI) ([1]; pure aqueous medium): does not have any interferences of Cr(VI) at all | Quantum yield in water w.r.t. Rhodamine B ([2]; [Triton X 100] 0.23 mM): 0.185 | Quantum yield in water w.r.t. Rhodamine B ([2]; [Triton X 100] 0.32 mM): 0.211 | Quantum yield in water w.r.t. Rhodamine B ([2]; [Triton X 100] 0.4 mM): 0.22 | Ka^ITC, binding affinity towards Cr^3+ [3]: (1.6±0.02)·10^6 M^−1 | ΔH of binding ([3]; ITC): -20.8 ± 0.4 kcal/mol | ΔS of binding ([3]; ITC): -41.4 ± 0.05 cal/(mol·K) | Ka^Abs, formation constant for Cr^3+.L1 [4]: (1.1±0.03)·10^6 M^−1 | Ka^Ems, formation constant for Cr^3+.L1 ([4]; λExt 530 nm, λMon 583 nm): (1.0±0.02)·10^6 M^−1 | Binding Constant, Uv-Vis Spectroscopic Method [5, 9]: 1960 M⁻¹ | Binding Constant, Uv-Vis Spectroscopic Method [5, 10]: 2400 M⁻¹ | Binding Constant, Uv-Vis Spectroscopic Method ([5]; [Triton X 100] 0.4 mM, aqueous medium): 3200 M⁻¹ | Ka^Abs, binding constant for formation of Cr^3+.L1 ([5]; aq. buffer medium pH 7.2, absorption titration, B-H plot): 3.2±0.2)·10^3 M^−1 | Increase in emission spectral intensity at 583 nm on adding Cr(III) ([6]; L1 1.59×10^−5 M, 0.32 mM Triton X 100, Tris pH 7.2, λext 530 nm): 200 fold | Binding Constant, Fluorescence Spectroscopic Method [6, 9]: 2000 M⁻¹ | Binding Constant, Fluorescence Spectroscopic Method [6, 10]: 2830 M⁻¹ | Binding Constant, Fluorescence Spectroscopic Method ([6]; [Triton X 100] 0.4 mM, Tris pH 7.2): 3250 M⁻¹ | Ka^Ems, binding constant for formation of Cr^3+.L1 ([6]; aq. buffer medium pH 7.2, emission titration, B-H plot): (3.3±0.2)·10^3 M^−1

CCN(CC)c1ccc2c(-c3ccccc3C(=O)O)c3ccc(=[N+](CC)CC)cc-3oc2c1.[Cl-] [Rhodamine B]
Fluorescence quantum yield φf (reference) [7]: 0.3

O=c1ccc2cc(/N=C/c3c4ccccc4cc4ccccc34)ccc2o1 [Receptors 3]
Selectivity towards Cr(III) [8]: high selectivity towards Cr(III)
